Assay results published in PubChem BioAssay AID1918940 (Molecular Pharmacology Branch, DTP, NCI, 2023).

Test system: NCI-H211 complex spheroid viability
Assay: Anticancer human tumor NCI-H211 cell line growth inhibition [LSD1];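 note: luminescent viability read after seven days of drug exposure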;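 for viability, T/C: 100% = DMSO vehicle control viability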
Conditions: for IC50: curve of first compound; for viability, T/C: stronger effect = lower value
How it was run: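 Multicellular complex spheroids of tumor cells with human endothelial cells (HUVEC) and mesenchymal stem cells; the LSD1 inhibitor iadademstat was combined with standard-of-care or investigational agents. Top concentration at or near clinical Cmax, half-log dilutions; final DMSO ≤0.25%.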

[1] = second compound 0.1 µM, first compound 0.000316 µM
[2] = second compound 0.1 µM, first compound 0.001 µM
[3] = second compound 0.1 µM, first compound 0.00316 µM
[4] = second compound 0.1 µM, first compound 0.01 µM
[5] = second compound 0.1 µM, first compound 0.0316 µM
[6] = second compound 0.1 µM, first compound 0.1 µM
[7] = second compound 0.316 µM, first compound 0.000316 µM
[8] = second compound 0.316 µM, first compound 0.001 µM
[9] = second compound 0.316 µM, first compound 0.00316 µM
[10] = second compound 0.316 µM, first compound 0.01 µM
[11] = second compound 0.316 µM, first compound 0.0316 µM
[12] = second compound 0.316 µM, first compound 0.1 µM
[13] = second compound 1 µM, first compound 0.000316 µM
[14] = second compound 1 µM, first compound 0.001 µM
[15] = second compound 1 µM, first compound 0.00316 µM
[16] = second compound 1 µM, first compound 0.01 µM
[17] = second compound 1 µM, first compound 0.0316 µM
[18] = second compound 1 µM, first compound 0.1 µM
[19] = second compound 3.16 µM, first compound 0.000316 µM
[20] = second compound 3.16 µM, first compound 0.001 µM
[21] = second compound 3.16 µM, first compound 0.00316 µM
[22] = second compound 3.16 µM, first compound 0.01 µM
[23] = second compound 3.16 µM, first compound 0.0316 µM
[24] = second compound 3.16 µM, first compound 0.1 µM
[25] = second compound 10 µM, first compound 0.000316 µM
[26] = second compound 10 µM, first compound 0.001 µM
[27] = second compound 10 µM, first compound 0.00316 µM
[28] = second compound 10 µM, first compound 0.01 µM
[29] = second compound 10 µM, first compound 0.0316 µM
[30] = second compound 10 µM, first compound 0.1 µM

What does the source list for CC(C)CC(NC(=O)CNC(=O)c1cc(Cl)ccc1Cl)B1OC(=O)CC(CC(=O)O)(C(=O)O)O1 (stereo not given) + NC1CC1c1ccc(-c2cccc(O)c2)cc1?
IC50 (second compound 0.1 µM): 15.4 nM; IC50 (second compound 0.316 µM): 16 nM; IC50 (second compound 1 µM): 14.9 nM; IC50 (second compound 3.16 µM): 13.9 nM; IC50 (second compound 10 µM): 7.26 nM; viability, T/C [1]: 90.8%; viability, T/C [2]: 76.5%; viability, T/C [3]: 82.2%; viability, T/C [4]: 61.9%; viability, T/C [5]: 29.3%; viability, T/C [6]: 5.5%; viability, T/C [7]: 91.6%; viability, T/C [8]: 102%; viability, T/C [9]: 97.5%; viability, T/C [10]: 61.6%; viability, T/C [11]: 30%; viability, T/C [12]: 5.69%; viability, T/C [13]: 74.5%; viability, T/C [14]: 83.2%; viability, T/C [15]: 96.7%; viability, T/C [16]: 57.4%; viability, T/C [17]: 27.8%; viability, T/C [18]: 4.52%; viability, T/C [19]: 75.3%; viability, T/C [20]: 82.8%; viability, T/C [21]: 93.4%; viability, T/C [22]: 56.5%; viability, T/C [23]: 24.5%; viability, T/C [24]: 4.84%; viability, T/C [25]: 71%; viability, T/C [26]: 70.3%; viability, T/C [27]: 98.3%; viability, T/C [28]: 38.5%; viability, T/C [29]: 17.4%; viability, T/C [30]: 2.36%

How did the IC50 (second compound 0.1 µM) turn out when CC(C)CC(NC(=O)C(Cc1ccccc1)NC(=O)c1cnccn1)B(O)O (stereo not given) + NC1CC1c1ccc(-c2cccc(O)c2)cc1 was run?
The IC50 was 3.45 nM.

What about the IC50 (second compound 0.316 µM) of the same compound?
The IC50 was 3.26 nM.

What about the IC50 (second compound 1 µM) of the same compound?
Its IC50 is 2.99 nM.

What about the IC50 (second compound 3.16 µM) of the same compound?
Its IC50 is 3.46 nM.

And the IC50 (second compound 10 µM)?
Its IC50 is 1.78 nM.

What about the viability, T/C [1] of the same compound?
The viability, T/C was 112%.

What about the viability, T/C [2] of the same compound?
The viability, T/C was 108%.

And the viability, T/C [3]?
Its viability, T/C is 54.1%.

And the viability, T/C [4]?
Its viability, T/C is 1.17%.

What about the viability, T/C [5] of the same compound?
Its viability, T/C is 0.06%.

And the viability, T/C [6]?
The viability, T/C was 0.19%.

And the viability, T/C [7]?
The viability, T/C was 107%.

And the viability, T/C [8]?
The viability, T/C was 119%.

And the viability, T/C [9]?
The viability, T/C was 51.4%.

What about the viability, T/C [10] of the same compound?
The viability, T/C was 1.97%.

And the viability, T/C [11]?
The viability, T/C was 0.17%.

What about the viability, T/C [12] of the same compound?
Its viability, T/C is 0.17%.

What about the viability, T/C [13] of the same compound?
The viability, T/C was 83.4%.

What about the viability, T/C [14] of the same compound?
The viability, T/C was 104%.

And the viability, T/C [15]?
Its viability, T/C is 47.8%.

And the viability, T/C [16]?
Its viability, T/C is 0.86%.

What about the viability, T/C [17] of the same compound?
Its viability, T/C is 0.09%.

What about the viability, T/C [18] of the same compound?
Its viability, T/C is 0.18%.

And the viability, T/C [19]?
The viability, T/C was 81.2%.

And the viability, T/C [20]?
Its viability, T/C is 102%.

What about the viability, T/C [21] of the same compound?
Its viability, T/C is 54.2%.

What about the viability, T/C [22] of the same compound?
The viability, T/C was 1.3%.

And the viability, T/C [23]?
Its viability, T/C is 0.09%.

What about the viability, T/C [24] of the same compound?
The viability, T/C was 0.19%.

And the viability, T/C [25]?
Its viability, T/C is 70.8%.

What about the viability, T/C [26] of the same compound?
Its viability, T/C is 74.1%.

And the viability, T/C [27]?
Its viability, T/C is 27.7%.

And the viability, T/C [28]?
The viability, T/C was 0.47%.

And the viability, T/C [29]?
The viability, T/C was 0.18%.

And the viability, T/C [30]?
The viability, T/C was 0.27%.

How did the IC50 (second compound 0.1 µM) turn out when CCN(c1cc(-c2ccc(CN3CCOCC3)cc2)cc(C(=O)NCc2c(C)cc(C)[nH]c2=O)c1C)C1CCOCC1 + NC1CCC(NC2CC2c2ccccc2)CC1 was run?
Its IC50 is > 3000 nM.

And the IC50 (second compound 0.316 µM)?
The IC50 was > 3000 nM.

What about the IC50 (second compound 1 µM) of the same compound?
The IC50 was > 3000 nM.

What about the IC50 (second compound 3.16 µM) of the same compound?
Its IC50 is 3000 nM.

And the IC50 (second compound 10 µM)?
Its IC50 is < 9.49 nM.

And the viability, T/C (second compound 0.1 µM, first compound 0.00949 µM)?
Its viability, T/C is 76%.

And the viability, T/C (second compound 0.1 µM, first compound 0.03 µM)?
The viability, T/C was 60.9%.

What about the viability, T/C (second compound 0.1 µM, first compound 0.0949 µM) of the same compound?
Its viability, T/C is 66.9%.

What about the viability, T/C (second compound 0.1 µM, first compound 0.3 µM) of the same compound?
The viability, T/C was 50.1%.

What about the viability, T/C (second compound 0.1 µM, first compound 0.949 µM) of the same compound?
Its viability, T/C is 56.8%.

And the viability, T/C (second compound 0.1 µM, first compound 3 µM)?
The viability, T/C was 64.2%.

What about the viability, T/C (second compound 0.316 µM, first compound 0.00949 µM) of the same compound?
The viability, T/C was 66.3%.

And the viability, T/C (second compound 0.316 µM, first compound 0.03 µM)?
Its viability, T/C is 68.5%.

What about the viability, T/C (second compound 0.316 µM, first compound 0.0949 µM) of the same compound?
The viability, T/C was 72.2%.

What about the viability, T/C (second compound 0.316 µM, first compound 0.3 µM) of the same compound?
Its viability, T/C is 59.9%.

What about the viability, T/C (second compound 0.316 µM, first compound 0.949 µM) of the same compound?
Its viability, T/C is 55.1%.

And the viability, T/C (second compound 0.316 µM, first compound 3 µM)?
The viability, T/C was 60%.

And the viability, T/C (second compound 1 µM, first compound 0.00949 µM)?
The viability, T/C was 60.3%.

And the viability, T/C (second compound 1 µM, first compound 0.03 µM)?
Its viability, T/C is 63.8%.

What about the viability, T/C (second compound 1 µM, first compound 0.0949 µM) of the same compound?
Its viability, T/C is 55.4%.

And the viability, T/C (second compound 1 µM, first compound 0.3 µM)?
The viability, T/C was 63.7%.

What about the viability, T/C (second compound 1 µM, first compound 0.949 µM) of the same compound?
The viability, T/C was 58.3%.

What about the viability, T/C (second compound 1 µM, first compound 3 µM) of the same compound?
Its viability, T/C is 59.1%.

And the viability, T/C (second compound 3.16 µM, first compound 0.00949 µM)?
The viability, T/C was 60%.

And the viability, T/C (second compound 3.16 µM, first compound 0.03 µM)?
The viability, T/C was 48.4%.

What about the viability, T/C (second compound 3.16 µM, first compound 0.0949 µM) of the same compound?
The viability, T/C was 54.3%.

What about the viability, T/C (second compound 3.16 µM, first compound 0.3 µM) of the same compound?
Its viability, T/C is 49.9%.

And the viability, T/C (second compound 3.16 µM, first compound 0.949 µM)?
The viability, T/C was 48.7%.

And the viability, T/C (second compound 3.16 µM, first compound 3 µM)?
The viability, T/C was 54.9%.

What about the viability, T/C (second compound 10 µM, first compound 0.00949 µM) of the same compound?
The viability, T/C was 40.4%.

And the viability, T/C (second compound 10 µM, first compound 0.03 µM)?
Its viability, T/C is 33.3%.

What about the viability, T/C (second compound 10 µM, first compound 0.0949 µM) of the same compound?
The viability, T/C was 30.8%.

What about the viability, T/C (second compound 10 µM, first compound 0.3 µM) of the same compound?
The viability, T/C was 26%.

What about the viability, T/C (second compound 10 µM, first compound 0.949 µM) of the same compound?
The viability, T/C was 21.1%.

What about the viability, T/C (second compound 10 µM, first compound 3 µM) of the same compound?
Its viability, T/C is 23.7%.
